These results are taken from patent US10561591B2, “Hair care regimen using compositions comprising moisture control materials” (The Procter & Gamble Company, priority 2015, dated 2020).

One assay in a line: Dynamic Vapor Sorption (DVS) measurement: % water reduction of treated hair versus control.
Details: not given
Here is the method: The % water reduction is calculated as follows: […]
Leave-on Treatment Formulation: […]
As to `O=CC(=O)O` [glyoxylic acid], the “% water reduction in regimen, in words” value is listed as “further increase % water reduction”.

A short description of another assay: Penetration amount of moisture control material inside hair (extraction with 0.1% TFA in methanol, HPLC). As to conditions: 2% 2-hydroxyethyl urea versus composition without (example III and IV).
Procedure: Each hair tress is extracted 3 times with 0.1% TFA (Trifluoroacetic acid) in methanol and the individual extracts are analyzed separately using HPLC method.
For `O=C(O)c1ccccc1O` [Salicylic acid], the “increase of penetration of salicylic acid inside hair by 2-hydroxyethyl urea” value was determined as 14%.

Another assay can be described thus: Expert rating of hair switches for frizz, clean feel and greasy feel (5 point scale) after high humidity. As to conditions: 1% in ethanol/water leave-on. As for the experimental part: (§1) Additional leave-on treatment compositions are prepared (Tables 1 and 2) according to the procedure described above, which are used to treat hair switches using the procedure described above (amount of 0.10 g of composition per g of hair). […] Then, ten experts are asked to rate each hair switch in terms of frizz, clean feel, and greasy feel, based on a 5 point scale, 5 being the highest and 1 being the lowest rating.
Acceptable values are: • For frizz, less than 2 (lower number corresponds to less frizz); • For no greasy feel less than 3, (lower number corresponds to less greasy feel), and • For clean feel greater than 3 (higher number corresponds to cleaner feel).
as §1, with “(Tables 6” for “(Tables 1”, “and 7)” for “and 2)”, “rating. Acceptable values are: • For frizz, less than 2 (lower number corresponds to less frizz); • For no greasy feel less than 3, (lower number corresponds to less greasy feel), and • For clean feel greater than 3 (higher number corresponds to cleaner feel).” for “rating.”
Turning to `CC(C)CCCCCCCCCCCCCCCOC(=O)CCCCCCCCCCCCCCC(C)C` [Isostearyl isostearate], the “hair switch rating (frizz, clean feel, greasy feel), in words” value (“hair switch rating” below) was “provide frizz protection with clean feel and without greasy feel negative”.

As for `O=C(O)c1ccc(O)cc1O` [2,4-Dihydroxybenzoic acid], the “hair switch rating” value was “provide fizz protection with clean feel and without greasy feel negative”.

With `CCCCCCCCC(CO)CCCCCC` (stereo not drawn) [2-Hexyl-1-decanol], the “hair switch rating” value was “provide frizz protection with clean feel and without greasy feel negative”.

On to `O=C(O)c1ccccc1O` [Salicylic acid], for which the “hair switch rating” value is “provide fizz protection with clean feel and without greasy feel negative”.

For the compound `O=C(OCCO)c1ccccc1O` [2-Hydroxyethyl salicylate], the “hair switch rating” value is “provide frizz protection with clean feel and without greasy feel negative”.

For `O=S(=O)(O)c1ccc(O)cc1` [4-Hydroxybenzenesulphonic acid], the “hair switch rating” value is “provide fizz protection with clean feel and without greasy feel negative”.

As to `O=C(O)c1cc(Cl)ccc1O` [5-Chlorosalicylic acid], the “hair switch rating” value is “provide fizz protection with clean feel and without greasy feel negative”.
